In US11578369B2, “Method for the in vitro prognosis of individuals having multiple myeloma and method for the treatment thereof” (CENTRE NATIONAL DE LA RECHERCHE SCIENTIFIQUE, priority 2016, dated 2023):
“And” between values parts separate entries of the source, which are not always exact repeats. Equal values may be shown once.

How the values were obtained:
Format in all cases: cell-based, human
[1] = tested on: LP1 and XG19 lenalidomide sensitive cell lines; assay: Lenalidomide sensitivity of HMCLs after EPZ-6438 pretreatment, cell growth assay; settings: 4 days 1 uM EPZ-6438 prior to lenalidomide, P<0.05
Method: HMCLs were cultured for 15 days in RPMI 1640 medium, 10% FCS, and 2 ng/ml IL-6 (control medium) in the presence of EPZ-6438 ([…] ®). Cell concentration and viability were assessed using trypan blue dye exclusion test. The number of metabolic-active was also determined using intracellular ATP quantitation.

primary MMCs = assay: Sensitivity of patients' primary MMCs to EPZ-6438, 8-day culture, viable MMC count by CD138 flow cytometry; settings: primary MMCs of 14 MM patients, one table row per patient; 1 μM EPZ-6438, 8 days, IL-6; in % (unit assumed)
Method: FIG. 3B: EZ score predicts for sensitivity of HMCLs and primary MMCs to EZH2 inhibitor. EZ score predicts for EPZ-6438 sensitivity of primary myeloma cells of patients. Mononuclear cells from tumor samples of 14 patients with MM were cultured for 8 days in the presence of IL-6 (2 ng/ml) with or without 1 μM EPZ-6438. At day 8 of culture, the count of viable MMCs was determined using CD138 staining by flow cytometry.
Bone marrow samples were collected after patients' written informed consent in accordance with the Declaration of Helsinki and institutional research board approval from Heidelberg and Montpellier University hospital. […] The structural chromosomal aberrations including t(4; 14)(p16.3; q32.3) and t(11; 14)(q13; q32.3), as well as numerical aberrations including 17p13 and 1q21 gain, were assayed by fluorescence in situ hybridization (iFISH). […] As iFISH data are not available for UAMS-TT2 patients, t(4; 14) translocation was evaluated using MMSET spike expression and del17p13 surrogated by TP53 probe set signal. […]
The inventors have determined that a set of 5 genes that are differentially expressed in a cohort of 14 MM individuals is associated with a prognostic value of their responsiveness to the EZH2 inhibitor EPZ-6438, as shown in Table 2 below. […]

MYC = MYC protein level in HMCLs by flow cytometry; settings: 1 μM EPZ-6438 4 days, then 2 days with or without 2 μM lenalidomide
Method: (§1) The expression of IKZF1, c-Myc and IRF4 in HMCLs was evaluated by flow cytometry using PE-conjugated anti-IKZFL anti-MYC and anti-IRF4 mAb and isotype matched PE-conjugated mAb. Data are mean values±standard deviation (SD) of three experiments.
(§2) The expression of IKZF1, c-Myc and IRF4 in HMCLs was evaluated by flow cytometry using PE-conjugated anti-IKZF1, anti-MYC and anti-IRF4 mAb and isotype matched PE-conjugated mAb. IKZF1 expression was assessed by immunofluorescence using an anti-IKZF1 primary antibody and an AF555-conjugated secondary antibody and further plotted onto a graph.
(§3) Cells were fixed for 10 min with Cytofix/Cytoperm (BD BIOSCIENCES®) at 4° C.
(§4) IMiDs promote Ikaros and Aiolos transcription factors binding to the E3 ubiquitin ligase cereblon (CRBN) leading to Ikaros and Aiolos ubiquitination and proteasomal degradation. Ikaros and Aiolos degradation are associated with a downregulation of Interferon regulatory factor 4 (IRF4) and MYC playing an essential role in MMC survival.

IRF4 = IRF4 protein level in HMCLs by flow cytometry; settings: 1 μM EPZ-6438 4 days, then 2 days with or without 2 μM lenalidomide
Method: as §1, §2, §3, §4

IKZF1 = IKZF1 protein level in HMCLs by flow cytometry; settings: 1 μM EPZ-6438 4 days, then 2 days with or without 2 μM lenalidomide
Method: as §1, §2, §3, §4

HMCLs [2] = assay: Sensitivity of HMCLs with high or low EZ score to EPZ-6438, cell growth assay; settings: 1 μM EPZ-6438, 8 days; P=0.04
Method: FIG. 3A: EZ score predicts for sensitivity of HMCLs and primary MMCs to EZH2 inhibitor. […] Human myeloma cell lines were cultured for 8 days in 96-well flat-bottom microtiter plates in RPMI 1640 medium, 10% fetal calf serum, 2 ng/ml IL-6 culture medium (control) and 1 μM EPZ-6438. Data are mean values±standard deviation (s.d.) of five experiments determined.
HMCLs were cultured for 15 days in RPMI 1640 medium, 10% FCS, and 2 ng/ml IL-6 (control medium) in the presence of EPZ-6438 ([…]®). Cell concentration and viability were assessed using trypan blue dye exclusion test. The number of metabolic-active was also determined using intracellular ATP quantitation. […] Cell growth was evaluated by quantifying intracellular ATP amount with a Cell Titer Glo Luminescent Assay (PROMEGA®, Madison, Wis.) using a Centro LB 960 luminometer (BERTHOLD TECHNOLOGIES®, Bad Wildbad, Germany).
It was then sought to validate whether the EZ-score could predict for the sensitivity of 10 HMCLs to EPZ-6438. Starting from the large cohort of 40 HMCLs, the response of 5 HMCLs with a high EZ score and 5 HMCLs with a low EZ score to EPZ-6438 EZH2 inhibitor was analyzed.

HMCLs [3] = assay: Sublethal dose (IC10) of Decitabine on HMCLs
Method: To assess the potential synergistic effect of the inhibition of these two repressive mechanisms, we tested the combination of a sublethal dose of Decitabine (100 nM, IC10) with EPZ-6438 (1 μM) on two EPZ-6438-resistant HMCLs. […] Therefore, DNA hypomethylation can collaborate with EZH2 inhibition to block MM cell growth.

`CCN(c1cc(-c2ccc(CN3CCOCC3)cc2)cc(C(=O)NCc2c(C)cc(C)[nH]c2=O)c1C)C1CCOCC1` [EPZ-6438, EPZ-6438 (Tazemetostat)] was tested, and the “sensitization of myeloma cell lines to lenalidomide treatment” value [1] was “significantly sensitize”, the Response (primary MMCs) was 64.15 and 46.39 and 53.41 and 61.33 and 72.61 and 112.5 and 84.96 and 118 and 79.27 and 77.76 and 101.43 and 73.09 and 66.53 and 72.01 and the “MYC protein level inhibition” value (MYC) was 6.2%. For the same compound, the “IRF4 protein level inhibition” value (IRF4) was 38.7%, the “IKZF1 protein level inhibition” value (IKZF1) was 45.2% and the “median higher EPZ-6438 sensitivity, 5 HMCLs with highest EZ score compared to 5 HMCLs with low EZ-score” value (HMCLs [2]) was 20 fold.
In the case of `Nc1cccc2c1CN(C1CCC(=O)NC1=O)C2=O` (stereo not drawn) [lenalidomide], the “MYC protein level inhibition” value (MYC) is reported as 2.2% and the “IRF4 protein level inhibition” value (IRF4) is reported as 43%.
In the case of `Nc1ncn([C@H]2C[C@H](O)[C@@H](CO)O2)c(=O)n1` [Decitabine], the IC10 (HMCLs [3]) is reported as 100 nM.
